Reference: US4798897A, “Isoquinoline derivatives” (Asahi Kasei Kogyo Kabushiki Kaisha, priority 1987, dated 1989)

Each compound was assayed on mesenteric artery (assay: Relaxation of mesenteric artery (KCl-contracted)). Settings: Oryctolagus cuniculus; rabbit mesenteric artery contracted with 15 to 20 mM KCl; read-out: ED50 (concentration attaining 50% of complete relaxation).
Experimental: 1. Relaxation of Mesenteric Artery
A rabbit of Japanese local variety weighing about 3 kg was bled to death. Then, the abdomen of the rabbit was dissected to locate a mesenteric artery. […] Thus, shrinking and relaxation of the artery could be measured as a load on the transducer. To the organ bath, KCl was added so that the KCl concentration became 15 to 20 mM, causing the artery to shrink. Then, the compounds of the present invention were added to the organ bath to observe relaxation of the artery.
The effect of the compounds of the present invention on relaxation of mesenteric artery was examined according to the method as mentioned hereinbefore.

| Structure (SMILES) | EC50 |
| --- | --- |
| CCN(C(C)CN)S(=O)(=O)c1cccc2cnccc12 (stereo not drawn) [Compound (17), N-(2-amino-1-methylethyl)-N-ethyl-5-isoquinolinesulfonamide] | 14 µM |
| CC(C)NC1CCN(S(=O)(=O)c2cccc3cnccc23)CC1 [Compound (55), 1-(5-isoquinolinesulfonyl)-4-isopropylaminopiperidine] | 17 µM |

Second part, the compound after the results:

| EC50 | Structure (SMILES) |
| --- | --- |
| 13 µM | CCCN(C(CN)C(C)C)S(=O)(=O)c1cccc2cnccc12 (stereo not drawn) [Compound (18), N-(1-aminomethyl-2-methylpropyl)-N-propyl-5-isoquinolinesulfonamide] |
| 4 µM | CC(C)N(CCN)S(=O)(=O)c1cccc2cnccc12 [Compound (2), N-(2-aminoethyl)-N-isopropyl-5-isoquinolinesulfonamide] |
| 13 µM | CCCCCCNC1CCCN(S(=O)(=O)c2cccc3c(Cl)nccc23)C1 (stereo not drawn) [Compound (98), 1-(1-chloro-5-isoquinolinesulfonyl)-3-hexylaminopiperidine] |
| 24 µM | O=S(=O)(c1cccc2cnccc12)N1CCCC(N2CCCCC2)C1 (stereo not drawn) [Compound (72), 1-(5-isoquinolinesulfonyl)-3-piperidinopiperidine] |

Each compound was assayed on coronary artery (assay: Blood flow increase of coronary artery in anesthetized dogs, i.v.). Settings: Canis lupus familiaris, iv, read-out: Increase in coronary artery blood flow.
Format: in vivo, dog (mongrel)
Experimental: (§1) 2. Blood Flow Increase of Coronary, Vertebral and Femoral Arteries
(§2) A plethysmographic probe (manufactured and sold by NIHON KODEN CO., LTD., Japan) was mounted on the coronary, vertebral and femoral arteries, and blood flow was measured by means of an electromagnetic blood flowmeter (type:MF-27, manufactured and sold by NIHON KODEN CO., LTD., Japan). Under these conditions, the compounds of the present invention were intravenously administered through a polyethylene tube inserted to a femoral veinlet, and the change in blood flow was measured for 30 minutes by means of the electromagnetic blood flowmeter.
(§3) The effects (dilation of the arteries) of the compounds of the present invention on blood flow in coronary, vertebral and femoral arteries were examined according to the method as mentioned hereinbefore.

| Structure (SMILES) | change in vivo at 0.3 mg/kg |
| --- | --- |
| O=S(=O)(c1cccc2c(O)nccc12)N1CCCNCC1 [Comparative Compound No. 2, 1(1-Hydroxy-5-isoquinolinesulfonyl)-homopiperazine, reference compound] | 27% |

Same assay, conditions: Canis lupus familiaris, iv; dog, 1.0 mg/kg

| Structure (SMILES) | change in vivo at 1 mg/kg |
| --- | --- |
| O=S(=O)(c1cccc2cnccc12)N1CCNCC1 [Comparative Compound No. 3, 1(5-Isoquinolinesulfonyl)piperazine, reference compound] | 70% |

Same assay, conditions: Canis lupus familiaris, iv; dog, i.v., 0.3 mg/kg; read-out: Increase in coronary artery blood flow

| Structure (SMILES) | change in vivo at 0.3 mg/kg |
| --- | --- |
| O=S(=O)(c1cccc2cnccc12)N1CCCNCC1 [Comparative Compound No. 1, 1(5-Isoquinolinesulfonyl)homopiperazine, reference compound] | 89% |

What follows are compounds tested on vertebral artery (assay: Blood flow increase of vertebral artery in anesthetized dogs, i.v.). Settings: Canis lupus familiaris, iv, read-out: Increase in vertebral artery blood flow.
Format: in vivo, dog (mongrel)
Experimental: as §1, §2, §3

| Structure (SMILES) | change in vivo at 0.3 mg/kg |
| --- | --- |
| O=S(=O)(c1cccc2c(O)nccc12)N1CCCNCC1 [Comparative Compound No. 2, 1(1-Hydroxy-5-isoquinolinesulfonyl)-homopiperazine, reference compound] | 48% |

Same assay, conditions: Canis lupus familiaris, iv; dog, 1.0 mg/kg

| Structure (SMILES) | change in vivo at 1 mg/kg |
| --- | --- |
| O=S(=O)(c1cccc2cnccc12)N1CCNCC1 [Comparative Compound No. 3, 1(5-Isoquinolinesulfonyl)piperazine, reference compound] | 98% |

Same assay, conditions: Canis lupus familiaris, iv; dog, i.v., 0.3 mg/kg; read-out: Increase in vertebral artery blood flow

| Structure (SMILES) | change in vivo at 0.3 mg/kg |
| --- | --- |
| O=S(=O)(c1cccc2cnccc12)N1CCCNCC1 [Comparative Compound No. 1, 1(5-Isoquinolinesulfonyl)homopiperazine, reference compound] | 160% |

What follows are compounds tested on femoral artery (assay: Blood flow increase of femoral artery in anesthetized dogs, i.v.). Settings: Canis lupus familiaris, iv, read-out: Increase in femoral artery blood flow.
Format: in vivo, dog (mongrel)
Experimental: as §1, §2, §3

| Structure (SMILES) | change in vivo at 0.3 mg/kg |
| --- | --- |
| O=S(=O)(c1cccc2c(O)nccc12)N1CCCNCC1 [Comparative Compound No. 2, 1(1-Hydroxy-5-isoquinolinesulfonyl)-homopiperazine, reference compound] | 30% |

Same assay, conditions: Canis lupus familiaris, iv; dog, 1.0 mg/kg

| Structure (SMILES) | change in vivo at 1 mg/kg |
| --- | --- |
| O=S(=O)(c1cccc2cnccc12)N1CCNCC1 [Comparative Compound No. 3, 1(5-Isoquinolinesulfonyl)piperazine, reference compound] | 69% |

Same assay, conditions: Canis lupus familiaris, iv; dog, i.v., 0.3 mg/kg; read-out: Increase in femoral artery blood flow

| Structure (SMILES) | change in vivo at 0.3 mg/kg |
| --- | --- |
| O=S(=O)(c1cccc2cnccc12)N1CCCNCC1 [Comparative Compound No. 1, 1(5-Isoquinolinesulfonyl)homopiperazine, reference compound] | 48% |

The compounds below were run on bronchial tubes (assay: Inhibition of histamine contraction of bronchial tubes (relaxation of bronchial tubes)). Settings: Cavia porcellus; guinea pig bronchial tube, 10 μM histamine; Table 16; read-out: ED50 (50% decrease of histamine contraction of bronchial tubes).
Experimental: 3. Inhibition of Histamine Contraction of Bronchial Tubes (Relaxation of Bronchial Tubes)
That is, a bronchial tube sample taken from a guinea pig was suspended in the 20-ml bath filled with Krebs-Henseleit nutrient solution and maintained at a temperature of 37° C. To the bath was added histamine so that the histamine concentration became 10 μM, causing the bronchial tube sample to contract. After the contraction became stable, the compounds of the present invention were added cumulatively to the bath to observe relaxation of the bronchial tube sample.
The effect of the compounds of the present invention on relaxation of bronchial tubes was examined according to the method as mentioned hereinbefore.

| Structure (SMILES) | EC50 |
| --- | --- |
| CCN(C(C)CN)S(=O)(=O)c1cccc2cnccc12 (stereo not drawn) [Compound (17), N-(2-amino-1-methylethyl)-N-ethyl-5-isoquinolinesulfonamide] | 10 µM |
| CC(C)NC1CCN(S(=O)(=O)c2cccc3cnccc23)CC1 [Compound (55), 1-(5-isoquinolinesulfonyl)-4-isopropylaminopiperidine] | 12 µM |

Other lines, results leading:

| EC50 | Structure (SMILES) |
| --- | --- |
| 13 µM | CCCN(C(CN)C(C)C)S(=O)(=O)c1cccc2cnccc12 (stereo not drawn) [Compound (18), N-(1-aminomethyl-2-methylpropyl)-N-propyl-5-isoquinolinesulfonamide] |
| 5 µM | CC(C)N(CCN)S(=O)(=O)c1cccc2cnccc12 [Compound (2), N-(2-aminoethyl)-N-isopropyl-5-isoquinolinesulfonamide] |
| 13 µM | CCCCCCNC1CCCN(S(=O)(=O)c2cccc3c(Cl)nccc23)C1 (stereo not drawn) [Compound (98), 1-(1-chloro-5-isoquinolinesulfonyl)-3-hexylaminopiperidine] |
| 21 µM | O=S(=O)(c1cccc2cnccc12)N1CCCC(N2CCCCC2)C1 (stereo not drawn) [Compound (72), 1-(5-isoquinolinesulfonyl)-3-piperidinopiperidine] |
